# Legend:
# mTOR = mTOR (Homo sapiens, UniProt P42345); assay: Kinase inhibitory profile; format: biochemical; settings: Class IV PI3Ks; 10-point concentration assays
# FGFR = assay: Kinase inhibitory profile; format: biochemical; settings: Other Clinically-relevant Kinases; 10-point concentration assays
# AMPK = assay: Kinase inhibitory profile; format: biochemical; settings: Other Clinically-relevant Kinases; 10-point concentration assays
# K-562 = assay: NCI-60 panel cell growth screen; format: cell-based, human; settings: K-562 (Leukemia)
# MOLT-4 = assay: NCI-60 panel cell growth screen; format: cell-based, human; settings: MOLT-4 (Leukemia)
# RPMI-8226 = assay: NCI-60 panel cell growth screen; format: cell-based, human; settings: RPMI-8226 (Leukemia)
# EKVX = assay: NCI-60 panel cell growth screen; format: cell-based, human; settings: EKVX (NSCLC)
# HOP-62 = assay: NCI-60 panel cell growth screen; format: cell-based, human; settings: HOP-62 (NSCLC)
# NCI-H226 = assay: NCI-60 panel cell growth screen; format: cell-based, human; settings: NCI-H226 (NSCLC)
# NCI-H23 = assay: NCI-60 panel cell growth screen; format: cell-based, human; settings: NCI-H23 (NSCLC)
# NCI-H460 = assay: NCI-60 panel cell growth screen; format: cell-based, human; settings: NCI-H460 (NSCLC)
# [1] = read-out: LC50 (the source's name)
substance,measurement,setting,value
N-[4-hydroxy-3-(8-quinolinylthio)-1-naphthyl]benzenesulfonamide [DT97],Inhibitory profile (kinase inhibition),mTOR,+
same,Inhibitory profile (kinase inhibition),FGFR,none
same,Inhibitory profile (kinase inhibition),AMPK,+
same,GI50,K-562,929 nM
same,TGI,K-562,1.65E-5
same,Percent Growth,K-562; log concentration −4.0,−12%
same,Percent Growth,K-562; log concentration −5.0,3%
same,Percent Growth,K-562; log concentration −6.0,48%
same,Percent Growth,K-562; log concentration −7.0,111%
same,Percent Growth,K-562; log concentration −8.0,108%
same,CC50,K-562; [1],> 100000 nM
same,GI50,MOLT-4,546 nM
same,LC50,MOLT-4,> 100000 nM
same,TGI,MOLT-4,5.53E-6
same,Percent Growth,MOLT-4; log concentration −4.0,−28%
same,Percent Growth,MOLT-4; log concentration −5.0,9%
same,Percent Growth,MOLT-4; log concentration −6.0,27%
same,Percent Growth,MOLT-4; log concentration −7.0,116%
same,Percent Growth,MOLT-4; log concentration −8.0,111%
same,GI50,RPMI-8226,2380 nM
same,TGI,RPMI-8226,7.90E-6
same,Percent Growth,RPMI-8226; log concentration −4.0,−9%
same,Percent Growth,RPMI-8226; log concentration −5.0,−10%
same,Percent Growth,RPMI-8226; log concentration −6.0,86%
same,Percent Growth,RPMI-8226; log concentration −7.0,92%
same,Percent Growth,RPMI-8226; log concentration −8.0,101%
same,CC50,RPMI-8226; [1],> 100000 nM
same,GI50,EKVX,1010 nM
same,TGI,EKVX,8.55E-6
same,Percent Growth,EKVX; log concentration −4.0,−99%
same,Percent Growth,EKVX; log concentration −5.0,−4%
same,Percent Growth,EKVX; log concentration −6.0,50%
same,Percent Growth,EKVX; log concentration −7.0,93%
same,Percent Growth,EKVX; log concentration −8.0,97%
same,GI50,HOP-62,1010 nM
same,TGI,HOP-62,2.54E-5
same,Percent Growth,HOP-62; log concentration −4.0,−37%
same,Percent Growth,HOP-62; log concentration −5.0,26%
same,Percent Growth,HOP-62; log concentration −6.0,50%
same,Percent Growth,HOP-62; log concentration −7.0,95%
same,Percent Growth,HOP-62; log concentration −8.0,93%
same,GI50,NCI-H226,2450 nM
same,TGI,NCI-H226,2.54E-5
same,Percent Growth,NCI-H226; log concentration −4.0,−40%
same,Percent Growth,NCI-H226; log concentration −5.0,27%
same,Percent Growth,NCI-H226; log concentration −6.0,65%
same,Percent Growth,NCI-H226; log concentration −7.0,94%
same,Percent Growth,NCI-H226; log concentration −8.0,92%
same,GI50,NCI-H23,1930 nM
same,TGI,NCI-H23,1.28E-5
same,Percent Growth,NCI-H23; log concentration −4.0,−58%
same,Percent Growth,NCI-H23; log concentration −5.0,7%
same,Percent Growth,NCI-H23; log concentration −6.0,67%
same,Percent Growth,NCI-H23; log concentration −7.0,102%
same,Percent Growth,NCI-H23; log concentration −8.0,98%
same,CC50,NCI-H23; [1],75900 nM
same,GI50,NCI-H460,499 nM
same,TGI,NCI-H460,1.37E-5
same,Percent Growth,NCI-H460; log concentration −4.0,−48%
same,Percent Growth,NCI-H460; log concentration −5.0,7%
same,Percent Growth,NCI-H460; log concentration −6.0,29%

# From article PMC5122408, “High throughput chemical library screening identifies a novel p110-δ inhibitor that potentiates the anti-myeloma effect of bortezomib” (Oncotarget, 2016)
